{"source": "paper PMC4919369", "about": "“A phase I study of the investigational NEDD8-activating enzyme inhibitor pevonedistat (TAK-924/MLN4924) in patients with metastatic melanoma” (Investigational New Drugs, 2016)", "key": {"[1]": {"test_system": "patients with metastatic melanoma", "assay": "Adverse events (NCI CTCAE v3.0) in the phase I study, safety population", "assay_type": "in vivo", "experimental": "(§1) Patients received pevonedistat as 1 h intravenous infusions either on Days 1, 4, 8, and 11 (schedule A) or on Days 1, 8, and 15 (schedule B, weekly dosing) of 21-day cycles. For schedule A, intermittent dosing on Days 1, 4, 8, and 11 was chosen to match the twice-weekly schedule of the proteasome inhibitor bortezomib. The starting dose of 50 mg/m^2 was selected based on the toxicities and the MTD observed in another phase I study that investigated pevonedistat administration on Days 1–5 of 21-day cycles in patients with advanced solid tumors. It was hypothesized that intermittent dosing – extending the dose over a 2-week period – would be better tolerated than the continuous dosing schedule, which was associated with severe hepatotoxicity. Schedule B, which was added subsequently through a protocol amendment, was based on the rationale that weekly bortezomib has similar efficacy and is more convenient than the twice-weekly schedule. […] Patients could receive pevonedistat until disease progression or unacceptable drug-related toxicity, up to a maximum of 12 months.\n(§2) Adverse events (AEs) were graded using the National Cancer Institute’s Common Terminology Criteria for AEs version 3.0. Response was assessed using the modified RECIST guideline (v1.1). Computed tomography or magnetic resonance imaging scans were performed at screening, at the end of Cycle 2, and then every other cycle."}, "[2]": {"test_system": "patients with metastatic melanoma", "assay": "Dose escalation: DLTs and MTD determination (Bayesian continual reassessment method)", "assay_type": "in vivo", "conditions": "schedule A (Days 1, 4, 8, and 11 of 21-day cycles), 1 h intravenous infusion", "experimental": "as §1\nDose escalation proceeded via a Bayesian continual reassessment method using 2-patient cohorts and 1.33-fold dose increments over the previous dose level. Dose escalation decisions were based on occurrence of DLTs in Cycle 1 and the predicted MTD from the continual reassessment model (Supplementary Fig. S1). […]"}, "[3]": {"test_system": "NAE-regulated transcriptional targets (ATF3, GCLM, GSR, MAG1, NQ01, SLC7A11, SRXN1, and TXNRD1)", "assay": "RT-PCR of NAE-regulated transcripts in whole blood", "assay_type": "in vivo, human", "experimental": "Blood samples for PD analysis were collected during Cycle 1. […] On schedule B samples were collected: at screening; on Day 1 within 1 h before dosing and 1, 2, 4, and 8 h after completion of infusion; on Day 8 within 1 h before dosing; and on Day 15 within 1 h before dosing and 1, 2, and 4 h after completion of infusion. Gene expression of NAE-regulated transcriptional targets (ATF3, GCLM, GSR, MAG1, NQ01, SLC7A11, SRXN1, and TXNRD1) in whole blood was analyzed by reverse-transcription polymerase chain reaction (RT-PCR). Raw data were transformed prior to calculation of percent change and assumptions were made for missing data, as previously described. Summary statistics were generated for the percent change from baseline at each time point for each gene."}, "[4]": {"test_system": "pevonedistat–NEDD8 adduct, Cdt1 and Nrf-2", "assay": "Immunohistochemistry of paired tumor biopsies", "assay_type": "in vivo, human", "experimental": "For patients in the MTD expansion cohort, paired tumor biopsies were obtained at screening and at 3–6 h post-dosing on Day 4 (schedule A) or Day 8 (schedule B). […] Immunohistochemical analyses were performed at Millennium Pharmaceuticals, Inc. as previously described."}, "[5]": {"test_system": "patients with metastatic melanoma", "assay": "Antitumor activity, response by modified RECIST v1.1", "assay_type": "in vivo, human", "experimental": "as §2"}, "[6]": {"test_system": "patients with multiple myeloma or lymphoma", "set-up": "method as in PMID 26561559", "conditions": "cited from earlier work"}, "[7]": {"test_system": "patients with solid tumors", "set-up": "method as in PMID 26423795", "conditions": "cited from earlier work"}, "[8]": {"test_system": "patients with relapsed/refractory AML or MDS", "set-up": "method as in PMID 25733005", "conditions": "cited from earlier work; for MTD: single-agent"}, "[9]": {"test_system": "treatment-naïve elderly patients with AML", "set-up": "method as in earlier work", "conditions": "in combination with azacitidine, Days 1, 3, and 5 schedule; cited from earlier work"}, "NAE": {"test_system": "NAE", "set-up": "method as in PMID 21779466, PMID 15688063, PMID 19360080, PMID 23416079, PMID 24853380", "conditions": "NAE inhibition; cited from earlier work"}, "clinical": {"assay": "clinical", "conditions": "human, in vivo", "quoted_text": "(§3) Blood samples (3 mL) for PK analysis were collected during Cycle 1. On schedule A, serial samples were collected within 1 h before dosing on Day 1, immediately after completion of infusion (immediately before switching off infusion pump), and at 1, 4, and 7 h after completion of infusion. Samples were also collected on Days 2 and 3; on Days 4 and 8 (immediately before dosing and immediately after completion of infusion); on Day 11 immediately before dosing, immediately after completion of infusion, and at 4 and 7 h after completion of infusion; and on Day 15. On schedule B, blood samples were collected within 1 h before dosing on Day 1, immediately after completion of infusion (immediately before switching off infusion pump), and at 1, 2, 4, and 7 h after completion of infusion. Samples were also collected on Days 2, 3, and 4; and on Days 8 and 15 (immediately before dosing and immediately after completion of infusion). Samples were analyzed at Tandem Labs (West Trenton, NJ) for pevonedistat plasma concentrations using Good Laboratory Practice-validated liquid chromatography/tandem mass spectrometry methods. The dynamic ranges were 1–500 ng/mL for the low-range assay and 75–7500 ng/mL for the high-range assay.\n(§4) The PK-evaluable population included all patients who received all protocol-defined doses in Cycle 1, had sufficient plasma concentration–time data to reliably estimate PK parameters, and had not received any excluded concomitant medications per protocol. Individual pevonedistat plasma concentration–time data were analyzed by noncompartmental methods using WinNonlin software (Version 6.2, Pharsight Corporation, Cary, NC). Plasma concentrations below the lower limit of quantification were set to zero for analysis."}, "[10]": {"assay": "Plasma pharmacokinetics (LC/MS/MS, noncompartmental analysis)", "conditions": "for Dose proportionality of plasma exposure: 50–278 mg/m^2, after Day 1 intravenous infusion; for Disposition profile following completion of the intravenous infusion: schedules A and B", "quoted_text": "as §3, §4"}, "[11]": {"conditions": "Cycle 1, Day 1, 7 h post-dose, Schedule A MTD, 209 mg/m^2 (n=11)"}, "[12]": {"conditions": "Cycle 1, Day 1, 8 h post-dose, Schedule B, 157 mg/m^2 (n=8)"}, "[13]": {"conditions": "the patient with partial response, 209 mg/m^2 schedule A"}, "[14]": {"conditions": "nine melanoma patients in the first-in-human phase I study"}, "[15]": {"conditions": "human, plasma, intravenous, 157 mg/m^2"}}, "note": "Several values for one entry are separate records, joined by “and”; a condition that tells them apart may be missing. Identical values can stand only once. Entries after “also recorded” stand apart in the source; their conditions may differ. Like-named read-outs stand apart in the source and are kept apart here."}
{"smiles": "NS(=O)(=O)OC[C@@H]1C[C@@H](n2ccc3c(N[C@H]4CCc5ccccc54)ncnc32)C[C@@H]1O", "note": "[pevonedistat, Pevonedistat]", "values": [{"measurement": "On-study death", "setting": "[1]; Schedule A (n = 26)", "value": "2 (8) n (%)"}, {"measurement": "On-study death", "setting": "[1]; Schedule B (n = 11)", "value": "1 (9) n (%)"}, {"measurement": "Severity of peripheral neuropathy", "setting": "[1]; human, in vivo", "value": "mild (grade 1)"}, {"measurement": "Patients who experienced acute organ failure toxicities", "setting": "[1]; in vivo", "value": "Two"}, {"measurement": "Tolerability at the MTD", "setting": "[1]; schedule A, 209 mg/m^2", "value": "generally well tolerated"}, {"measurement": "Drug-related death", "setting": "[1]; schedule A, 209 mg/m^2, one patient after one dose, Day 9 of Cycle 1", "value": "grade 5 acute renal failure; also recorded: died due to drug-related acute renal failure"}, {"measurement": "Maximum tolerated dose (MTD)", "setting": "[2]", "value": 209, "unit": "mg/m^2"}, {"measurement": "ATF3 transcript, median % change from baseline (range)", "setting": "[3]; [11]", "value": "88.6 (–38.6 to 385.0) %"}, {"measurement": "GCLM transcript, median % change from baseline (range)", "setting": "[3]; [11]", "value": "105.3 (–33.0 to 234.2) %"}, {"measurement": "GSR transcript, median % change from baseline (range)", "setting": "[3]; [11]", "value": "196.6 (–54.2 to 447.6) %"}, {"measurement": "MAG1 transcript, median % change from baseline (range)", "setting": "[3]; [11]", "value": "99.1 (–22.4 to 236.4) %"}, {"measurement": "NQ01 transcript, median % change from baseline (range)", "setting": "[3]; [11]", "value": "681.2 (–49.7 to 2740.6) %"}, {"measurement": "SLC7A11 transcript, median % change from baseline (range)", "setting": "[3]; [11]", "value": "837.0 (–65.3 to 3873.9) %"}, {"measurement": "SRXN1 transcript, median % change from baseline (range)", "setting": "[3]; [11]", "value": "142.0 (–50.5 to 340.0) %"}, {"measurement": "TXNRD1 transcript, median % change from baseline (range)", "setting": "[3]; [11]", "value": "220.7 (–41.7 to 347.7) %"}, {"measurement": "ATF3 transcript, median % change from baseline (range)", "setting": "[3]; [12]", "value": "260 (30.8 to 541.4) %"}, {"measurement": "GCLM transcript, median % change from baseline (range)", "setting": "[3]; [12]", "value": "65.4 (20.0–108.0) %"}, {"measurement": "GSR transcript, median % change from baseline (range)", "setting": "[3]; [12]", "value": "176.2 (93.2–216.6) %"}, {"measurement": "MAG1 transcript, median % change from baseline (range)", "setting": "[3]; [12]", "value": "81.7 ( 39.0–158.2) %"}, {"measurement": "NQ01 transcript, median % change from baseline (range)", "setting": "[3]; [12]", "value": "833.8 (330.6–2202.3) %"}, {"measurement": "SLC7A11 transcript, median % change from baseline (range)", "setting": "[3]; [12]", "value": "727.4 (184.7 to 1660.0) %"}, {"measurement": "SRXN1 transcript, median % change from baseline (range)", "setting": "[3]; [12]", "value": "81.5 (43.3 to 185.3) %"}, {"measurement": "TXNRD1 transcript, median % change from baseline (range)", "setting": "[3]; [12]", "value": "156.9 (87.8 to 234.9) %"}, {"measurement": "Change of all eight NAE-regulated gene transcripts post-treatment", "setting": "[3]; MTD on schedule A and schedule B", "value": "increases in NAE-regulated transcripts post-treatment; also recorded: significantly increased"}, {"measurement": "Doses at which induction of all NAE-regulated transcriptional targets was observed", "setting": "[3]; data not shown", "value": "≥ 50", "unit": "mg/m^2"}, {"measurement": "pevonedistat–NEDD8 adduct in post-dose tumor biopsy samples", "setting": "[4]; 3–6 h after Cycle 1, Day 4 dose, 3 patients, Schedule A MTD expansion cohort", "value": "positive"}, {"measurement": "Immunohistochemical expression of Cdt1 and Nrf-2 in tumor", "setting": "[4]; one patient with adequate biopsy tissue, schedule A MTD", "value": "increased post-treatment"}, {"measurement": "Best response: progressive disease", "setting": "[5]; 31 response-evaluable patients", "value": "15 (48 %) patients"}, {"measurement": "Best response: stable disease", "setting": "[5]; 31 response-evaluable patients, schedule A and B", "value": "15 patients and 15 (48 %) patients"}, {"measurement": "Patients with stable disease lasting 6.5 months or longer", "setting": "[5]; among the 15 patients who achieved stable disease", "value": 4, "unit": "patients"}, {"measurement": "Duration of response", "setting": "[5]; [13]", "value": 1.55, "unit": "months"}, {"measurement": "Overall duration of stable disease or better", "setting": "[5]; [13]", "value": 4.4, "unit": "months"}, {"measurement": "MTD", "setting": "[6]; Day 1, 2, 8, and 9 schedule", "value": 110, "unit": "mg/m^2"}, {"measurement": "MTD", "setting": "[6]; Days 1, 4, 8, and 11 of 21-day cycles", "value": 196, "unit": "mg/m^2"}, {"measurement": "DLTs", "setting": "[6]", "value": "febrile neutropenia, AST elevation, muscle cramps, and thrombocytopenia"}, {"measurement": "MTD", "setting": "[7]; Days 1–5 and Days 1, 3, and 5 schedules", "value": "50–67 mg/m^2"}, {"measurement": "DLTs", "setting": "[7]", "value": "ALT elevation, AST elevation, and hyperbilirubinemia"}, {"measurement": "Duration of stable disease in another patient", "setting": "[7]; [14]", "value": 6, "unit": "months"}, {"measurement": "Patients achieving a partial response", "setting": "[7]; [14]", "value": "one"}, {"measurement": "DLTs", "setting": "[8]", "value": "multi-organ failure, reversible ALT elevation, AST/ALT elevation, cardiac failure, and acute renal failure"}, {"measurement": "MTD", "setting": "[8]; Days 1, 3, and 5 of 21-day cycles", "value": "50/59"}, {"measurement": "MTD", "setting": "[8]; Days 1, 4, 8, and 11 schedule", "value": 83, "unit": "mg/m^2"}, {"measurement": "MTD", "setting": "[9]", "value": 20, "unit": "mg/m^2"}, {"measurement": "Fraction of the proteins regulated by the UPS whose proteasomal degradation is prevented", "setting": "NAE", "value": "~ 20%"}, {"measurement": "Tmax", "setting": "clinical", "value": 1, "unit": "h"}, {"measurement": "clearance", "setting": "clinical", "value": 635, "unit": "mL/min"}, {"measurement": "half-life", "setting": "clinical", "value": 10.4, "unit": "h"}, {"measurement": "Dose proportionality of plasma exposure", "setting": "[10]", "value": "increased approximately proportionally with dose"}, {"measurement": "Dose proportionality of plasma exposure", "setting": "[10]; listed as Pevonedistat", "value": "approximately dose-proportional"}, {"measurement": "AUC(0-inf)", "setting": "[10]; [15]", "value": 8930, "unit": "ng·h/mL"}, {"measurement": "AUC(0-t)", "setting": "[10]; [15]", "value": 7250, "unit": "ng·h/mL"}, {"measurement": "Cmax", "setting": "[10]; [15]", "value": 2450, "unit": "ng/mL"}, {"measurement": "Tmax", "setting": "[10]; [15]", "value": 1, "unit": "h"}, {"measurement": "clearance", "setting": "[10]; [15]", "value": 647, "unit": "mL/min"}, {"measurement": "half-life", "setting": "[10]; [15]", "value": 10.1, "unit": "h"}, {"measurement": "half-life", "setting": "[10]; human, plasma, iv", "value": "~10", "unit": "h"}, {"measurement": "Disposition profile following completion of the intravenous infusion", "setting": "[10]", "value": "biphasic disposition phase"}, {"measurement": "Disposition profile following completion of the intravenous infusion", "setting": "[10]; listed as Pevonedistat", "value": "biphasic disposition profile"}]}
